{"source": "paper PMC6152052", "about": "“Molecular Structure–Affinity Relationship of Flavonoids in Lotus Leaf (Nelumbo nucifera Gaertn.) on Binding to Human Serum Albumin and Bovine Serum Albumin by Spectroscopic Method” (Molecules : A Journal of Synthetic Chemistry and Natural …, 2017)", "key": {"[1]": {"target": "T1, human serum albumin (HSA) (Homo sapiens, UniProt P02768)", "T1 construct": "gene ALB; 585 residues, 66,500 Da, single non-glycosylated chain", "T1 sequence (P02768 25-609)": "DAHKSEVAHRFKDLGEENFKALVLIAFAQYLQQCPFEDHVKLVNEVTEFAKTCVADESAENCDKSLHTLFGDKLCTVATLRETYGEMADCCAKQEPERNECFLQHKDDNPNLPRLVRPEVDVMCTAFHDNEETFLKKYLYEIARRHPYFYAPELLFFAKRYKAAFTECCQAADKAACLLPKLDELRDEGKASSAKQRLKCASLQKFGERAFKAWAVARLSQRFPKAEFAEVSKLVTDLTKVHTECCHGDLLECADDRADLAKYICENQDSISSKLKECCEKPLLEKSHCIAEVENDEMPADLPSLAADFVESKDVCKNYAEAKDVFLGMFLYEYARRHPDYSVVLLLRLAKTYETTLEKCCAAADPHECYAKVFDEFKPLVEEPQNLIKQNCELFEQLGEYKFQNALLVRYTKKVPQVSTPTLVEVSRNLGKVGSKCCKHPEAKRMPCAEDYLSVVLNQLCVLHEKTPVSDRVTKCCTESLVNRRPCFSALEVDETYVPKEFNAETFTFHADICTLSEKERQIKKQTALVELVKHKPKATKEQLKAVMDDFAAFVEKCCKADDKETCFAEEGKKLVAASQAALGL", "assay": "intrinsic fluorescence quenching, double-log plot", "assay_type": "binding", "excerpt": "intrinsic fluorescence quenching, double-log plot on human serum albumin (HSA)"}, "[2]": {"target": "T2, bovine serum albumin (BSA) (Bos taurus, UniProt P02769)", "T2 construct": "gene ALB", "T2 sequence (P02769 25-607)": "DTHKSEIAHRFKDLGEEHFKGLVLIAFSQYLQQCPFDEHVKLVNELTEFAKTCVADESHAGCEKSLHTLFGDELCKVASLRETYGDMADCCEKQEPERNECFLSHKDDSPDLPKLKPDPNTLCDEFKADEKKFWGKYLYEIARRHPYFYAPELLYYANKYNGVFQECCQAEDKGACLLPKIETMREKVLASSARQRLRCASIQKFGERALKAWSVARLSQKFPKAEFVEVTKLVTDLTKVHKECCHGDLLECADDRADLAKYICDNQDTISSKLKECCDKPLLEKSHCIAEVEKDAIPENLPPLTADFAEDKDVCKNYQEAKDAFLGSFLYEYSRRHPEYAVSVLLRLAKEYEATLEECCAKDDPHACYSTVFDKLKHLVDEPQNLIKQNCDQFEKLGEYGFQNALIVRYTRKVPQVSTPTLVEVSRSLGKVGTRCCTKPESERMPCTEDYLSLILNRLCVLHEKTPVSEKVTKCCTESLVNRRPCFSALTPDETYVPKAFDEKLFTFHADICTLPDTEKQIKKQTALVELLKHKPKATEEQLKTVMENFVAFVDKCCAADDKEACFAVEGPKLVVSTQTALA", "assay": "intrinsic fluorescence quenching, double-log plot", "assay_type": "binding", "excerpt": "intrinsic fluorescence quenching, double-log plot on bovine serum albumin (BSA)"}}, "note": "Read-outs that look alike come from different tables or passages of the source.", "data": [{"compound": "O=c1c(O[C@@H]2O[C@H](CO)[C@@H](O)[C@H](O)[C@H]2O)c(-c2ccc(O)c(O)c2)oc2cc(O)cc(O)c12", "note": "[compound 4, isoquercitrin]", "values": [{"measurement": "HSA Affinity / logKa", "setting": "[1]; PBS pH 7.4, 300.15 K, ex 280 nm, em 336 nm, n = 0.936, double-log", "result": "6.584 log (L/mol)"}, {"measurement": "BSA Affinity / logKa", "setting": "[2]; PBS pH 7.4, 300.15 K, ex 280 nm, em 341 nm, n = 0.938, double-log", "result": "7.095 log (L/mol)"}]}, {"compound": "C[C@@H]1O[C@@H](OC[C@H]2O[C@@H](Oc3c(-c4ccc(O)c(O)c4)oc4cc(O)cc(O)c4c3=O)[C@H](O)[C@@H](O)[C@@H]2O)[C@H](O)[C@H](O)[C@H]1O", "note": "[compound 2, rutin]", "values": [{"measurement": "HSA Affinity / logKa", "setting": "[1]; PBS pH 7.4, 300.15 K, ex 280 nm, em 336 nm, n = 0.992, double-log", "result": "5.896 log (L/mol)"}, {"measurement": "BSA Affinity / logKa", "setting": "[2]; PBS pH 7.4, 300.15 K, ex 280 nm, em 341 nm, n = 0.962, double-log", "result": "6.686 log (L/mol)"}]}, {"compound": "O=c1c(O[C@@H]2O[C@H](CO)[C@H](O)[C@H](O)[C@H]2O)c(-c2ccc(O)c(O)c2)oc2cc(O)cc(O)c12", "note": "[compound 3, hyperoside]", "values": [{"measurement": "HSA Affinity / logKa", "setting": "[1]; PBS pH 7.4, 300.15 K, ex 280 nm, em 336 nm, n = 0.960, double-log", "result": "6.802 log (L/mol)"}, {"measurement": "BSA Affinity / logKa", "setting": "[2]; PBS pH 7.4, 300.15 K, ex 280 nm, em 341 nm, n = 0.950, double-log", "result": "6.891 log (L/mol)"}]}, {"compound": "O=c1c(O)c(-c2ccc(O)cc2)oc2cc(O)cc(O)c12", "note": "[compound 10, kaempferol]", "values": [{"measurement": "HSA Affinity / logKa", "setting": "[1]; PBS pH 7.4, 300.15 K, ex 280 nm, em 336 nm, n = 0.918, double-log", "result": "6.830 log (L/mol)"}, {"measurement": "BSA Affinity / logKa", "setting": "[2]; PBS pH 7.4, 300.15 K, ex 280 nm, em 341 nm, n = 0.911, double-log", "result": "7.106 log (L/mol)"}]}, {"compound": "O=c1cc(-c2ccc(O)c(O)c2)oc2cc(O)cc(O)c12", "note": "[compound 6, luteolin]", "values": [{"measurement": "HSA Affinity / logKa", "setting": "[1]; PBS pH 7.4, 300.15 K, ex 280 nm, em 336 nm, n = 0.904, double-log", "result": "7.064 log (L/mol)"}, {"measurement": "BSA Affinity / logKa", "setting": "[2]; PBS pH 7.4, 300.15 K, ex 280 nm, em 341 nm, n = 0.923, double-log", "result": "7.110 log (L/mol)"}]}, {"compound": "O=C1c2c(O)cc(O)cc2O[C@H](c2ccc(O)c(O)c2)[C@H]1O", "note": "[compound 5, taxifolin]", "values": [{"measurement": "HSA Affinity / logKa", "setting": "[1]", "result": "6.748 log (L/mol)"}, {"measurement": "BSA Affinity / logKa", "setting": "[2]", "result": "7.067 log (L/mol)"}]}, {"compound": "O=c1c(O[C@@H]2O[C@H](CO)[C@@H](O)[C@H](O)[C@H]2O)c(-c2ccc(O)cc2)oc2cc(O)cc(O)c12", "note": "[compound 1, astragalin]", "values": [{"measurement": "HSA Affinity / logKa", "setting": "[1]; PBS pH 7.4, 300.15 K, ex 280 nm, em 336 nm, n = 0.994, double-log", "result": "6.234 log (L/mol)"}, {"measurement": "BSA Affinity / logKa", "setting": "[2]; PBS pH 7.4, 300.15 K, ex 280 nm, em 341 nm, n = 0.963, double-log", "result": "6.359 log (L/mol)"}]}, {"compound": "COc1cc(-c2oc3cc(O)cc(O)c3c(=O)c2O)ccc1O", "note": "[compound 11, isorhamnetin]", "values": [{"measurement": "HSA Affinity / logKa", "setting": "[1]; PBS pH 7.4, 300.15 K, ex 280 nm, em 336 nm, n = 0.923, double-log", "result": "6.798 log (L/mol)"}, {"measurement": "BSA Affinity / logKa", "setting": "[2]; PBS pH 7.4, 300.15 K, ex 280 nm, em 341 nm, n = 0.941, double-log", "result": "6.828 log (L/mol)"}]}, {"compound": "O=c1cc(-c2ccc(O)cc2)oc2cc(O)cc(O)c12", "note": "[compound 8, apigenin]", "values": [{"measurement": "HSA Affinity / logKa", "setting": "[1]; PBS pH 7.4, 300.15 K, ex 280 nm, em 336 nm, n = 0.962, double-log", "result": "6.655 log (L/mol)"}, {"measurement": "BSA Affinity / logKa", "setting": "[2]; PBS pH 7.4, 300.15 K, ex 280 nm, em 341 nm, n = 0.870, double-log", "result": "7.086 log (L/mol)"}]}, {"compound": "O=C1C[C@@H](c2ccc(O)cc2)Oc2cc(O)cc(O)c21", "note": "[compound 9, naringenin]", "values": [{"measurement": "HSA Affinity / logKa", "setting": "[1]", "result": "6.493 log (L/mol)"}, {"measurement": "BSA Affinity / logKa", "setting": "[2]", "result": "6.982 log (L/mol)"}]}, {"compound": "O=c1c(O)c(-c2ccc(O)c(O)c2)oc2cc(O)cc(O)c12", "note": "[compound 7, quercetin]", "values": [{"measurement": "HSA Affinity / logKa", "setting": "[1]", "result": "7.089 log (L/mol)"}, {"measurement": "BSA Affinity / logKa", "setting": "[2]", "result": "7.299 log (L/mol)"}]}]}
